From the supplement of paper PMC10307832 come the findings set out here.

What all share (test): relative viability (nuclei count vs DMSO), 5 days (fraction); higher = more cells survive
Compound in experiment [1]: COc1cc([C@@H]2c3cc4c(cc3[C@@H](O[C@@H]3O[C@@H]5CO[C@@H](C)O[C@H]5[C@H](O)[C@H]3O)[C@H]3COC(=O)[C@H]23)OCO4)cc(OC)c1O [Etoposide] + CC(=O)c1c(C)c2cnc(Nc3ccc(N4CCNCC4)cn3)nc2n(C2CCCC2)c1=O [Palbociclib] (partner 0.5 µM)
The essentials:
(§1)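 Dosing by pin tool came one day after lung cancer cell lines were seeded in 1536-well plates, using either one drug or a fixed anchor-drug dose plus five library-drug doses (not always all listed) in √10 steps. After 5 days, nuclei were counted on 4× images. Relative viability is treated-well nuclei count divided by vehicle-well nuclei count, and values are medians of duplicate plates.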

Compound in experiment [2]: CC1=C(N=C(N=C1N)[C@H](CC(=O)N)NC[C@@H](C(=O)N)N)C(=O)N[C@@H]([C@H](C2=CN=CN2)OC3C(C(C(C(O3)CO)O)O)OC4C(C(C(C(O4)CO)O)OC(=O)N)O)C(=O)N[C@H](C)[C@H]([C@H](C)C(=O)N[C@@H]([C@@H](C)O)C(=O)NCCC5=NC(=CS5)C6=NC(=CS6)C(=O)NCCC[S+](C)C)O [Bleomycin] + CS(=O)(=O)CCNCc1ccc(-c2ccc3ncnc(Nc4ccc(OCc5cccc(F)c5)c(Cl)c4)c3c2)o1 [Lapatinib] (partner 2 µM)
The conditions noted are these: main component drawn. The essentials: as §1

Compound in experiment [3]: COc1cc([C@@H]2c3cc4c(cc3[C@@H](O[C@@H]3O[C@@H]5CO[C@@H](C)O[C@H]5[C@H](O)[C@H]3O)[C@H]3COC(=O)[C@H]23)OCO4)cc(OC)c1O [Etoposide] + CCNC(=O)c1noc(-c2cc(C(C)C)c(O)cc2O)c1-c1ccc(CN2CCOCC2)cc1 [Luminespib] (partner 0.01 µM)
Summed up:
as §1

Compound in experiment [4]: COc1cc([C@@H]2c3cc4c(cc3[C@@H](O[C@@H]3O[C@@H]5CO[C@@H](C)O[C@H]5[C@H](O)[C@H]3O)[C@H]3COC(=O)[C@H]23)OCO4)cc(OC)c1O [Etoposide] + N=C(N)NC(=N)NCCc1ccccc1 [Phenformin] (partner 250 µM)
Summed up: as §1

Regarding LOU-NH91, the relative viability in experiment [1] (first compound 0.01 µM) came to 0.556; in experiment [1] (first compound 0.03162 µM), 0.545; in experiment [1] (first compound 0.1 µM) it was 0.516; in experiment [1] (first compound 0.3162 µM), 0.468; in experiment [1] (first compound 1 µM), 0.428; in experiment [2] (first compound 0.01 µM), 0.679. In addition, the relative viability in experiment [2] (first compound 0.03162 µM) is 0.609; in experiment [2] (first compound 0.1 µM) it was 0.51; in experiment [2] (first compound 0.3162 µM) it was 0.361; in experiment [2] (first compound 1 µM) it was 0.298; in experiment [3] (first compound 0.01 µM), 0.318; in experiment [3] (first compound 0.03162 µM), 0.38. For the same cell line, the relative viability worked out at 0.306 in experiment [3] (first compound 0.1 µM); 0.311 in experiment [3] (first compound 0.3162 µM); 0.284 in experiment [3] (first compound 1 µM); 0.692 in experiment [4] (first compound 0.01 µM); 0.756 in experiment [4] (first compound 0.03162 µM); 0.692 in experiment [4] (first compound 0.1 µM). In addition, the relative viability in experiment [4] (first compound 0.3162 µM) was 0.653; in experiment [4] (first compound 1 µM), 0.404.

As to NCI-H23, the relative viability in experiment [1] (first compound 0.01 µM) worked out at 0.504; in experiment [1] (first compound 0.03162 µM) it was 0.515; in experiment [1] (first compound 0.1 µM), 0.485; in experiment [1] (first compound 0.3162 µM) it was 0.334; in experiment [1] (first compound 1 µM) it was 0.236; in experiment [2] (first compound 0.01 µM) it was 0.419. The relative viability was 0.314 in experiment [2] (first compound 0.03162 µM); 0.268 in experiment [2] (first compound 0.1 µM); 0.197 in experiment [2] (first compound 0.3162 µM); 0.165 in experiment [2] (first compound 1 µM); 0.23 in experiment [3] (first compound 0.01 µM); 0.204 in experiment [3] (first compound 0.03162 µM). In addition, the relative viability in experiment [3] (first compound 0.1 µM) was 0.207; in experiment [3] (first compound 0.3162 µM) it was 0.212; in experiment [3] (first compound 1 µM), 0.246; in experiment [4] (first compound 0.01 µM) it was 0.822; in experiment [4] (first compound 0.03162 µM), 0.834; in experiment [4] (first compound 0.1 µM), 0.633. For the same cell line, the relative viability in experiment [4] (first compound 0.3162 µM) came to 0.392; in experiment [4] (first compound 1 µM), 0.259.

PC-3 [JPC-3]: the relative viability in experiment [1] (first compound 0.01 µM) came to 0.481; in experiment [1] (first compound 0.03162 µM), 0.493; in experiment [1] (first compound 0.1 µM), 0.545; in experiment [1] (first compound 0.3162 µM), 0.56; in experiment [1] (first compound 1 µM), 0.526; in experiment [2] (first compound 0.01 µM) it was 0.455. Besides, the relative viability was 0.422 in experiment [2] (first compound 0.03162 µM); 0.473 in experiment [2] (first compound 0.1 µM); 0.364 in experiment [2] (first compound 0.3162 µM); 0.314 in experiment [2] (first compound 1 µM); 0.67 in experiment [3] (first compound 0.01 µM); 0.717 in experiment [3] (first compound 0.03162 µM). Also, the relative viability in experiment [3] (first compound 0.1 µM) was 0.549; in experiment [3] (first compound 0.3162 µM), 0.581; in experiment [3] (first compound 1 µM), 0.371; in experiment [4] (first compound 0.01 µM), 0.456; in experiment [4] (first compound 0.03162 µM), 0.453; in experiment [4] (first compound 0.1 µM), 0.478. Moreover, the relative viability was 0.434 in experiment [4] (first compound 0.3162 µM) and 0.374 in experiment [4] (first compound 1 µM).

On to NCI-H1437, for which the relative viability is 0.278 in experiment [1] (first compound 0.01 µM); 0.352 in experiment [1] (first compound 0.03162 µM); 0.279 in experiment [1] (first compound 0.1 µM); 0.293 in experiment [1] (first compound 0.3162 µM); 0.269 in experiment [1] (first compound 1 µM); 0.711 in experiment [2] (first compound 0.01 µM). Besides, the relative viability in experiment [2] (first compound 0.03162 µM) was found to be 0.743; in experiment [2] (first compound 0.1 µM) it was 0.775; in experiment [2] (first compound 0.3162 µM), 0.296; in experiment [2] (first compound 1 µM), 0.373; in experiment [3] (first compound 0.01 µM) it was 1.1; in experiment [3] (first compound 0.03162 µM) it was 1.07. The relative viability in experiment [3] (first compound 0.1 µM) came to 1.14; in experiment [3] (first compound 0.3162 µM) it was 0.7; in experiment [3] (first compound 1 µM) it was 0.509; in experiment [4] (first compound 0.01 µM), 0.265; in experiment [4] (first compound 0.03162 µM) it was 0.342; in experiment [4] (first compound 0.1 µM), 0.357. Further, the figures for the relative viability in experiment [4] (first compound 0.3162 µM) and in experiment [4] (first compound 1 µM) were 0.233 and 0.2, respectively.

For NCI-H520, the relative viability was found to be 0.256 in experiment [1] (first compound 0.01 µM); 0.245 in experiment [1] (first compound 0.03162 µM); 0.193 in experiment [1] (first compound 0.1 µM); 0.254 in experiment [1] (first compound 0.3162 µM); 0.227 in experiment [1] (first compound 1 µM); 0.715 in experiment [2] (first compound 0.01 µM). The relative viability is 0.79 in experiment [2] (first compound 0.03162 µM); 0.833 in experiment [2] (first compound 0.1 µM); 0.54 in experiment [2] (first compound 0.3162 µM); 0.43 in experiment [2] (first compound 1 µM); 0.204 in experiment [3] (first compound 0.01 µM); 0.198 in experiment [3] (first compound 0.03162 µM). Besides, the relative viability in experiment [3] (first compound 0.3162 µM) was 0.218; in experiment [3] (first compound 1 µM), 0.219; in experiment [4] (first compound 0.01 µM), 0.487; in experiment [4] (first compound 0.03162 µM), 0.585; in experiment [4] (first compound 0.3162 µM), 0.619; in experiment [4] (first compound 1 µM), 0.502.

Consider NCI-H1666, for which the relative viability amounted to 0.618 in experiment [1] (first compound 0.01 µM); 0.639 in experiment [1] (first compound 0.03162 µM); 0.662 in experiment [1] (first compound 0.1 µM); 0.592 in experiment [1] (first compound 0.3162 µM); 0.506 in experiment [1] (first compound 1 µM); 0.607 in experiment [2] (first compound 0.01 µM). Besides, the relative viability is 0.417 in experiment [2] (first compound 0.03162 µM); 0.344 in experiment [2] (first compound 0.1 µM); 0.247 in experiment [2] (first compound 0.3162 µM); 0.288 in experiment [2] (first compound 1 µM); 0.949 in experiment [3] (first compound 0.01 µM); 0.906 in experiment [3] (first compound 0.03162 µM). The relative viability in experiment [3] (first compound 0.1 µM) is 0.77; in experiment [3] (first compound 0.3162 µM), 0.399; in experiment [3] (first compound 1 µM), 0.406; in experiment [4] (first compound 0.01 µM), 0.513; in experiment [4] (first compound 0.03162 µM) it was 0.571; in experiment [4] (first compound 0.1 µM), 0.507. In addition, the relative viability is 0.398 in experiment [4] (first compound 0.3162 µM) and 0.363 in experiment [4] (first compound 1 µM).

For the cell line NCI-H1651, the relative viability amounted to 0.512 in experiment [1] (first compound 0.01 µM); 0.515 in experiment [1] (first compound 0.03162 µM); 0.414 in experiment [1] (first compound 0.1 µM); 0.359 in experiment [1] (first compound 0.3162 µM); 0.178 in experiment [1] (first compound 1 µM); 0.75 in experiment [2] (first compound 0.01 µM). The relative viability in experiment [2] (first compound 0.03162 µM) worked out at 0.653; in experiment [2] (first compound 0.1 µM) it was 0.595; in experiment [2] (first compound 0.3162 µM) it was 0.229; in experiment [2] (first compound 1 µM), 0.149; in experiment [3] (first compound 0.01 µM) it was 0.815; in experiment [3] (first compound 0.03162 µM), 0.724. For the same cell line, the relative viability in experiment [3] (first compound 0.1 µM) stood at 0.681; in experiment [3] (first compound 0.3162 µM), 0.308; in experiment [3] (first compound 1 µM), 0.209; in experiment [4] (first compound 0.01 µM) it was 0.293; in experiment [4] (first compound 0.03162 µM), 0.351; in experiment [4] (first compound 0.1 µM), 0.286. Further, the results for the relative viability in experiment [4] (first compound 0.3162 µM) and in experiment [4] (first compound 1 µM) were 0.205 and 0.149, respectively.
